# Assay results reported in patent publication US9157069B2, “Method of producing pancreatic hormone-producing cells” (Takeda Pharmaceutical Company Limited, priority 2010, dated 2015).
# “Also recorded” adds a separate entry of the source.
# Assays:
# human iPS cells [1] = assay: Endoderm induction of human iPS cells, SOX17 gene expression by quantitative RT-PCR; type: cell-based; conditions: GSK3 inhibitor (CHIR99021 3 μM or BIO 0.5 μM) with activin A 100 ng/ml, after 2 days in CHIR99021 3 μM; from day 4 of culture
# Description: To the human iPS cells sedimented in the centrifuge tube, 0.25% trypsin-1 mM EDTA solution (GIBCO) was added, and allowed to dissociate until they form singulated cells. Then, human iPS cells dispersed in a medium were seeded at a density of 15×10^4 cells per one 100 mm dish coated with BD Matrigel (Nippon Becton Dickinson Company, Ltd.), and cultured at 37° C., 5% CO2 for 1 day. The 100 mm dish used was one coated with BD Matrigel diluted 40-fold with serum-free DMEM/F12 medium (Invitrogen), at room temperature for 3 hr or longer. As a medium for dispersion and seeding was a medium for primate ES cell (ReproCELL Inc.) added with 10 μM Y-27632 (Wako Pure Chemical Industries, Ltd.). […]
# To examine variation in the expression of endoderm differentiation markers when human iPS cells were cultured, the cells after differentiation induction were recovered over time, and total RNA fraction was purified using RNeasy96 (Qiagen). cDNA was synthesized using PrimeScriptRT reagent kit (Takara Bio Inc.), quantitative RT-PCR was performed, and the gene expression level of a primitive streak marker Brachyury, and an endoderm marker SOX17 was measured. […]
# The level of the gene expression of SOX17 when human iPS cells were cultured was measured over time. […]
# human iPS cells [2] = assay: Differentiation of human iPS cells into pancreatic hormone-producing cells on BD Matrigel or fibronectin substrate, time-course expression of differentiation markers; type: cell-based; conditions: substrate for endoderm induction, 100 mm dish coating diluted 40-fold
# Description: First, human iPS cells maintained in the state of a cell mass were dissociated until they formed singulated cells in the same manner as in Example 1. Then, human iPS cells dispersed in a medium were seeded at a density of 60×10^4 cells per one 100 mm dish coated with fibronectin (Invitrogen), and cultured at 37° C., 5% CO2 for 1 day. The 100 mm dish used was one coated with fibronectin diluted 40-fold with serum-free DMEM/F12 medium (Invitrogen), at room temperature for 3 hr or longer. (indicated as “fibronectin” in FIG. 7) Human iPS cells dispersed in a medium were seeded at a density of 15×10^4 cells per one 100 mm dish coated with BD Matrigel (Nippon Becton Dickinson Company, Ltd.), and cultured at 37° C., 5% CO2 for 1 day. The 100 mm dish used was one coated with BD Matrigel diluted 40-fold with serum-free DMEM/F12 medium (Invitrogen), at room temperature for 3 hr or longer. (indicated as “Matrigel” in FIG. 7) As a medium for dispersion and seeding was a medium for primate ES cell (ReproCELL Inc.) added with 10 μM Y-27632 (Wako Pure Chemical Industries, Ltd.). One day after seeding, the medium was exchanged with DMEM/F12 medium containing a GSK3β inhibitor CHIR99021 (3 μM) and 2% B-27 supplement (GIBCO) and cultured for 2 days. Then the medium was exchanged with DMEM/F12 medium containing activin A (50 ng/ml) and CHIR99021 (1 μM) and cultured for 2 days.
Compound,expression level of SOX17 (relative to GAPDH) (human iPS cells [1]),"time-course variation in the expression of differentiation markers (SOX17, PDX1, NGN3, insulin), compared between substrates (human iPS cells [2])"
"O=C1Nc2cc(Br)ccc2/C1=C1/Nc2ccccc2/C1=N\O [BIO, (2′Z,3′E)-6-bromoindirubin-3′-oxime]",remarkably increased; also recorded: increased over time,
"Cc1c[nH]c(-c2cnc(NCCNc3ccc(C#N)cn3)nc2-c2ccc(Cl)cc2Cl)n1 [CHIR99021, 6-[[2-[[4-(2,4-dichlorophenyl)-5-(4-methyl-1H-imidazol-2-yl)-2-pyrimidinyl]amino]ethyl]amino]nicotinonitrile]",remarkably increased; also recorded: increased over time,
fibronectin,,almost the same
